Experimental data taken from PMC5907623 (Cancer Chemotherapy and Pharmacology, 2018).

Tests used:
[1] = Part A: steady-state PK of AZD5363 tablet versus capsule, partially fasted, in patients with advanced solid malignancies; assay type: in vivo, human
Protocol: PK parameters were assessed on the fourth day of Week 1 and Week 2 (i.e. on Day 4 and Day 11). […] In addition, pre-dose samples were drawn on Day 8 in Part B to verify that a washout period of 3.5 days was adequate for AZD5363. […] Following the addition of internal standard ([^13C6]AZ12886380), calibration, quality control (QC) and study samples (25 µL) were processed by solid-phase extraction then assayed for AZD5363 by liquid chromatography–tandem mass spectrometry. […] All trial samples were analysed within the known stability period for AZD5363 and all a priori assay acceptance criteria were met, in accordance with regulatory guidance. […] PK parameters were derived using non-compartmental methods (Phoenix® WinNonlin®). Plasma concentration–time profiles were analysed to determine Cmax, Cmin and tmax, while AUCτ was determined from application of the linear-up/log-down trapezoidal rule. […] The statistical analysis for estimating the food and capsule effect was based on analysing log-transformed PK parameters AUCτ and Cmax using a fixed-effects model with terms for patient and treatment only. […] Other PK parameters are presented descriptively.

[2] = Part B: effect of food (overnight fast versus standardized meal) on steady-state PK of AZD5363 tablet in patients; assay type: in vivo, human; conditions: for AUCτ, Gmean (CV%) / Cmax, Gmean (CV%) / Cmin, Gmean (CV%) / tmax, median (range): tablet 480 mg bid, steady state, N = 9
Protocol: (§1) Patients had been fasting overnight prior to the breakfast and no further food was permitted for 4 h post-dose.
The bioanalytical method used to generate AZD5363 plasma concentration data for the derivation of PK parameters for the study had been previously validated, according to regulatory guidance, by Covance UK Ltd on behalf of AstraZeneca. Following the addition of internal standard ([^13C6]AZ12886380), calibration, quality control (QC) and study samples (25 µL) were processed by solid-phase extraction then assayed for AZD5363 by liquid chromatography–tandem mass spectrometry. […] All trial samples were analysed within the known stability period for AZD5363 and all a priori assay acceptance criteria were met, in accordance with regulatory guidance.
PK parameters were derived using non-compartmental methods (Phoenix® WinNonlin®). Plasma concentration–time profiles were analysed to determine Cmax, Cmin and tmax, while AUCτ was determined from application of the linear-up/log-down trapezoidal rule.
The statistical analysis for estimating the food and capsule effect was based on analysing log-transformed PK parameters AUCτ and Cmax using a fixed-effects model with terms for patient and treatment only. All statistical calculations and analyses were performed with SAS® software, version 9.1.3 or higher. Other PK parameters are presented descriptively.

[3] = Part A: safety and tolerability (adverse events, CTCAE v4.0) of AZD5363 tablet and capsule; assay type: in vivo, human
Protocol: PK parameters were assessed on the fourth day of Week 1 and Week 2 (i.e. on Day 4 and Day 11). […] Any AE occurring after the first dose of study treatment and up to 28 days after the last dose of study treatment was included in the AE summaries. The safety analysis set comprised all patients who received at least one dose of AZD5363. All safety data are presented descriptively.

[4] = Part B: safety and tolerability (adverse events, CTCAE v4.0) of AZD5363 tablet, fasted versus fed; assay type: in vivo, human; conditions: for Abdominal pain, All / Abdominal pain, Grade ≥ 3 / Anaemia, All / Anaemia, Grade ≥ 3 / Any AE (causally related), All / Any AE (causally related), Grade ≥ 3 / Any AE (irrespective of causality), All / Any AE (irrespective of causality), Grade ≥ 3 / Diarrhoea, All / Diarrhoea, Grade ≥ 3 / Hyperglycaemia, All / Hyperglycaemia, Grade ≥ 3 / Hypokalaemia, All / Hypokalaemia, Grade ≥ 3 / Pneumonia, All / Pneumonia, Grade ≥ 3 / Rash macular, All / Rash macular, Grade ≥ 3 / Rash maculopapular, All / Rash maculopapular, Grade ≥ 3 / Rash papular, All / Rash papular, Grade ≥ 3 / Skin discolouration, All / Skin discolouration, Grade ≥ 3: tablet
Protocol: as §1
Safety assessments throughout the study encompassed the incidence and severity of AEs (graded according to Common Terminology Criteria for Adverse Events [CTCAE] version 4.0), in addition to laboratory parameters (haematology, clinical chemistry, urinalysis), physical examination, 12-lead electrocardiography (ECG), and vital signs. To assess safety in the fed versus fasted state, the period during and just after the fasted day was considered relevant to the fasted dose (Days 4–7), and similarly, the fed day and subsequent days were considered relevant to the fed state (Days 11–14). Any AE occurring after the first dose of study treatment and up to 28 days after the last dose of study treatment was included in the AE summaries.
The safety analysis set comprised all patients who received at least one dose of AZD5363. All safety data are presented descriptively.

[5] = parameters: method as in PMID 29066505; conditions: cited from earlier work
[6] = Day 11, fed (standardized meal)
[7] = tablet, N = 9, 90% CI where printed in brackets
[8] = Day 15 onward, partially fasted, N = 12

## 4-amino-N-[(1S)-1-(4-chlorophenyl)-3-hydroxypropyl]-1-(7H-pyrrolo[2,3-d]pyrimidin-4-yl)piperidine-4-carboxamide [AZD5363]
[1]; Part A, estimated
  Intra-patient variability for AUCτ: 20%
  Intra-patient variability for Cmax: 22%
[1]; Parts A and B
  Intra-subject variability in AUCτ and Cmax: around 20 % CV
[2]; Day 8, 3 days after the last dose on Day 4
  Pre-dose plasma concentration, geometric least-squares mean: 3.34 ng/mL
[2]; Day 11
  Average steady-state concentration over the 12-h dosing interval (geometric mean AUCτ/12): 678 ng/mL
[2]; Day 4, overnight fasted
  AUCτ, Gmean (CV%): 9116 (16.8) h ng/mL
  Cmax, Gmean (CV%): 1842 (31.1) ng/mL
  Cmin, Gmean (CV%): 218.5 (30.3) ng/mL
  tmax, median (range): 0.6 (0.5–4) h
[2]; [6]
  AUCτ, Gmean (CV%): 8136 (33.9) h ng/mL
  Cmax, Gmean (CV%): 1239 (23.3) ng/mL
  Cmin, Gmean (CV%): 262.3 (58.6) ng/mL
  tmax, median (range): 2.0 (2–4.3) h
[2]; [7]
  AUCτ GLSM ratio fed:fasted: 0.89
  Cmax GLSM ratio fed:fasted: 0.67
[3]
  Changes in ECG findings, vital signs or physical examinations: no clinically significant changes
[3]; 7 of 18 patients, in two the events occurred before start of treatment
  Patients with serious AEs (SAEs): 38.9%
[3]; majority of patients, similar for tablet and capsule
  Plasma glucose (with plasma insulin and C-peptide): Elevations in plasma glucose
[4]; in six patients of 12
  Number of SAEs: 11
[4]; [8]
  Abdominal pain, All: 1 (8.3) Number of patients (%)
  Abdominal pain, Grade ≥ 3: 1 (8.3) Number of patients (%)
  Anaemia, All: 1 (8.3) Number of patients (%)
  Anaemia, Grade ≥ 3: 1 (8.3) Number of patients (%)
  Any AE (causally related), All: 10 (83.3) Number of patients (%)
  Any AE (causally related), Grade ≥ 3: 5 (41.7) Number of patients (%)
  Any AE (irrespective of causality), All: 12 (100.0) Number of patients (%)
  Any AE (irrespective of causality), Grade ≥ 3: 7 (58.3) Number of patients (%)
  Diarrhoea, All: 8 (66.7) Number of patients (%)
  Diarrhoea, Grade ≥ 3: 1 (8.3) Number of patients (%)
  Hyperglycaemia, All: 6 (50.0) Number of patients (%)
  Hyperglycaemia, Grade ≥ 3: 5 (41.7) Number of patients (%)
  Hypokalaemia, All: 1 (8.3) Number of patients (%)
  Hypokalaemia, Grade ≥ 3: 1 (8.3) Number of patients (%)
  Pneumonia, All: 1 (8.3) Number of patients (%)
  Pneumonia, Grade ≥ 3: 1 (8.3) Number of patients (%)
  Rash macular, All: 1 (8.3) Number of patients (%)
  Rash macular, Grade ≥ 3: 0 Number of patients (%)
  Rash maculopapular, All: 2 (16.7) Number of patients (%)
  Rash maculopapular, Grade ≥ 3: 2 (16.7) Number of patients (%)
  Rash papular, All: 0 Number of patients (%)
  Rash papular, Grade ≥ 3: 0 Number of patients (%)
  Skin discolouration, All: 1 (8.3) Number of patients (%)
  Skin discolouration, Grade ≥ 3: 1 (8.3) Number of patients (%)
[4]; Days 4–7, fasted dose, N = 12
  Abdominal pain, All: 0 Number of patients (%)
  Abdominal pain, Grade ≥ 3: 0 Number of patients (%)
  Anaemia, All: 1 (8.3) Number of patients (%)
  Anaemia, Grade ≥ 3: 0 Number of patients (%)
  Any AE (causally related), All: 4 (33.3) Number of patients (%)
  Any AE (causally related), Grade ≥ 3: 2 (16.7) Number of patients (%)
  Any AE (irrespective of causality), All: 5 (41.7) Number of patients (%)
  Any AE (irrespective of causality), Grade ≥ 3: 2 (16.7) Number of patients (%)
  Diarrhoea, All: 2 (16.7) Number of patients (%)
  Diarrhoea, Grade ≥ 3: 1 (8.3) Number of patients (%)
  Hyperglycaemia, All: 1 (8.3) Number of patients (%)
  Hyperglycaemia, Grade ≥ 3: 1 (8.3) Number of patients (%)
  Hypokalaemia, All: 0 Number of patients (%)
  Hypokalaemia, Grade ≥ 3: 0 Number of patients (%)
  Pneumonia, All: 0 Number of patients (%)
  Pneumonia, Grade ≥ 3: 0 Number of patients (%)
  Rash macular, All: 0 Number of patients (%)
  Rash macular, Grade ≥ 3: 0 Number of patients (%)
  Rash maculopapular, All: 1 (8.3) Number of patients (%)
  Rash maculopapular, Grade ≥ 3: 0 Number of patients (%)
  Rash papular, All: 0 Number of patients (%)
  Rash papular, Grade ≥ 3: 0 Number of patients (%)
  Skin discolouration, All: 0 Number of patients (%)
  Skin discolouration, Grade ≥ 3: 0 Number of patients (%)
[4]; Days 11–14, fed dose, N = 10
  Abdominal pain, All: 0 Number of patients (%)
  Abdominal pain, Grade ≥ 3: 0 Number of patients (%)
  Anaemia, All: 1 (10.0) Number of patients (%)
  Anaemia, Grade ≥ 3: 0 Number of patients (%)
  Any AE (causally related), All: 5 (50.0) Number of patients (%)
  Any AE (causally related), Grade ≥ 3: 4 (40.0) Number of patients (%)
  Any AE (irrespective of causality), All: 6 (60.0) Number of patients (%)
  Any AE (irrespective of causality), Grade ≥ 3: 4 (40.0) Number of patients (%)
  Diarrhoea, All: 3 (30.0) Number of patients (%)
  Diarrhoea, Grade ≥ 3: 2 (20.0) Number of patients (%)
  Hyperglycaemia, All: 1 (10.0) Number of patients (%)
  Hyperglycaemia, Grade ≥ 3: 1 (10.0) Number of patients (%)
  Hypokalaemia, All: 0 Number of patients (%)
  Hypokalaemia, Grade ≥ 3: 0 Number of patients (%)
  Pneumonia, All: 0 Number of patients (%)
  Pneumonia, Grade ≥ 3: 0 Number of patients (%)
  Rash macular, All: 1 (10.0) Number of patients (%)
  Rash macular, Grade ≥ 3: 1 (10.0) Number of patients (%)
  Rash maculopapular, All: 2 (20.0) Number of patients (%)
  Rash maculopapular, Grade ≥ 3: 2 (20.0) Number of patients (%)
  Rash papular, All: 1 (10.0) Number of patients (%)
  Rash papular, Grade ≥ 3: 1 (10.0) Number of patients (%)
  Skin discolouration, All: 0 Number of patients (%)
  Skin discolouration, Grade ≥ 3: 0 Number of patients (%)
[4]; up to 4 h post-dose
  Plasma glucose during the fasted period: no indication of glucose elevation
[5]; dose range 80–800 mg
  Dose proportionality of plasma exposure: approximately dose proportional
[5]; patients
  Dose excreted in urine as unchanged drug: less than 10%
  Terminal half life: approximately 10 h
